For series [1], the target named is nAChR formed by the α7 subunit isoform (Rattus norvegicus, UniProt Q05941). Description: biochemical. Format: binding.
The target of series [2] is nAChRs comprised of α4 and β2 subunits (Rattus norvegicus, UniProt P09483+P12390). As to the kind of experiment: In vitro inhibition of 3H-cytisine binding. As for the experimental part: The predominant subtype with high affinity for nicotine is comprised of α4 and β2 subunits. nAChRs of the latter type can selectively be labelled by the nicotine agonist ^3H-cytisine.
Tissue Preparation: Preparations are performed at 0-4° C. unless otherwise indicated. […] The homogenate is centrifuged at 27,000×g for 10 min. The supernatant is discarded and the pellet is resuspended in fresh buffer and centrifuged a second time. The final pellet is resuspended in fresh buffer (35 ml per g of original tissue) and used for binding assays.
Assay: Aliquots of 500 μl homogenate are added to 25 μl of test solution and 25 μl of ^3H-cytisine (1 nM, final concentration), mixed and incubated for 90 min at 2° C. Non-specific binding is determined using (−)-nicotine (100 μM, final concentration). After incubation the samples are added 5 ml of ice-cold buffer and poured directly onto Whatman GF/C glass fibre filters under suction and immediately washed with 2×5 ml ice-cold buffer. The amount of radioactivity on the filters is determined by conventional liquid scintillation counting. Specific binding is total binding minus non-specific binding.

Series [3] deals with T1, neuronal nicotinic receptors (α4β2 subtype high affinity site) (Rattus norvegicus, UniProt P09483+P12390).
T1 construct: The forebrain (÷cerebellum) from a male Wistar rat (150-250 g) is homogenized; from tissue; host or cells: rat forebrain (without cerebellum) membrane homogenate
As to the kind of experiment: In vitro inhibition of 3H-epibatidin binding. As for the experimental part:
The high affinity binding site for ^3H-epibatidin is most certainly binding to the α4β2 subtype of nicotinic receptors. The identity of the low affinity site is still unknown; does it represent a second nicotinic receptor or a second site in the same receptor.
Tissue preparation: Preparations are performed at 0-4° C. unless otherwise indicated. The forebrain (÷cerebellum) from a male Wistar rat (150-250 g) is homogenized for 10-20 sec in 20 ml Tris, HCl (50 mM, pH 7.4) using an Ultra-Turrax homogenizer. The tissue suspension is centrifuged at 27,000×g for 10 min. The supernatant is discarded and the pellet is washed three times by centrifugation at 27,000×g for 10 min in 20 ml fresh buffer, and the final pellet is resuspended in fresh buffer (400 ml per g of original tissue) and used for binding assays.
Assay: Aliquots of 2.0 ml homogenate are added to 0.100 ml of test solution and 0.100 ml of ^3H-epibatidin (0.3 nM, final concentration), mixed and incubated for 60 min at room temperature. Non-specific binding is determined using (−)-nicotine (30 μM, final concentration). After incubation the samples are poured directly onto Whatman GF/C glass fibre filters (presoaked in 0.1% PEI for at least 20 min) under suction and immediately washed with 2×5 ml ice-cold buffer. The amount of radioactivity on the filters is determined by conventional liquid scintillation counting. Specific binding is total binding minus non-specific binding.

For series [4] the following is noted: relative to morphine; cited from earlier work.
Setting [5] is: rat cerebral cortex homogenate, 1 nM 3H-cytisine, 90 min at 2° C., read-out: 3H-cytisine IC50.
Where [6] appears, read: rat forebrain homogenate, 0.3 nM 3H-epibatidin, 60 min at room temperature, read-out: 3H-epibatidin IC50.

pIC50: −log10 of the molar value. Where two headings read alike, the source gives them in different places.

For orientation: pIC50 means −log10 of the IC50, conventionally taken in molar units. By melting point is commonly meant the temperature, or range, at which the solid turns liquid.

Chain of nAChR formed by the α7 subunit isoform (Q05941 23-502): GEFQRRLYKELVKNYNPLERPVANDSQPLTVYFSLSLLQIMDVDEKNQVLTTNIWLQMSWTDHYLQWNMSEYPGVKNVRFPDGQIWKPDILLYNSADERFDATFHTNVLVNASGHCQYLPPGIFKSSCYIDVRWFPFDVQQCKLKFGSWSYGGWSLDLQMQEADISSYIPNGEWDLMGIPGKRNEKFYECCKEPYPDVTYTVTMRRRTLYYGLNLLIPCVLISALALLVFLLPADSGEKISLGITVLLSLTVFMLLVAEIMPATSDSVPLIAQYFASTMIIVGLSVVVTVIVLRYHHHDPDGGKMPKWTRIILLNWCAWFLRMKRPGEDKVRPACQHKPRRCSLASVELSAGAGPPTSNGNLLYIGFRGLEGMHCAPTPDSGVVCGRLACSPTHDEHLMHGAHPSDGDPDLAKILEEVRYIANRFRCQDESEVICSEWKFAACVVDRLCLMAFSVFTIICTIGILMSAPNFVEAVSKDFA
T1 sequence (P09483 31-630): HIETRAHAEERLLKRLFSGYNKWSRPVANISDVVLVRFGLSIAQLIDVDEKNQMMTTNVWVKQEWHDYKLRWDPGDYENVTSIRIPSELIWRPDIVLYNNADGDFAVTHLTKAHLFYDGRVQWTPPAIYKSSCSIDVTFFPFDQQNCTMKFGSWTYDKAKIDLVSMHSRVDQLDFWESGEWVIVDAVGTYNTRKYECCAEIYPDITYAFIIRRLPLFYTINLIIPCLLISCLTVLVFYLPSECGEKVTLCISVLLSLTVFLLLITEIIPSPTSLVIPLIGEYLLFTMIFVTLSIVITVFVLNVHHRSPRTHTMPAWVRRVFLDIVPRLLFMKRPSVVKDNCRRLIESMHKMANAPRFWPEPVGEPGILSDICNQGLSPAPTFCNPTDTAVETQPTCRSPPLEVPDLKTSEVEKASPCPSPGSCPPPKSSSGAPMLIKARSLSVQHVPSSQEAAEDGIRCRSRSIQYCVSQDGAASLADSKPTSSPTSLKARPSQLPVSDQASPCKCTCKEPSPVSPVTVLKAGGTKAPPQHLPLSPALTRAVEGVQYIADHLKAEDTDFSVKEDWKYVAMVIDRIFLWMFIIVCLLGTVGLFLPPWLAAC
T1 sequence (P12390 25-500): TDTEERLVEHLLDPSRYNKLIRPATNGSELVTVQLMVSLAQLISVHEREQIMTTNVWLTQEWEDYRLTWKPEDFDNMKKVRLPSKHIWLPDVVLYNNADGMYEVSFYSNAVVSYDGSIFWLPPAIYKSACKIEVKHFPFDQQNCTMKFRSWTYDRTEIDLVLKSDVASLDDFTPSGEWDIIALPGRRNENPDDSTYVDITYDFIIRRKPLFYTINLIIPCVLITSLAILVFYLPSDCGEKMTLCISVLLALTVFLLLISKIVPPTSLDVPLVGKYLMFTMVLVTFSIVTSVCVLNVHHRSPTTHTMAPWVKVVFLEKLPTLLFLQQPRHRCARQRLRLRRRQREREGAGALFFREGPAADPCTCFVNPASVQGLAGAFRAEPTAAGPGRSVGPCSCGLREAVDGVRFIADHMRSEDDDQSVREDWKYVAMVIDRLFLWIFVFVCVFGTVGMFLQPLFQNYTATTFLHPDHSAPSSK
Chain of nAChRs comprised of α4 and β2 subunits (P09483 31-630): as the sequence (P09483 31-630) above
Chain of nAChRs comprised of α4 and β2 subunits (P12390 25-500): as the sequence (P12390 25-500) above

Regarding `CCCCOc1cncc(N2CCNCC2)c1` [Compound 2D, 1-(5-Butoxy-3-pyridyl)piperazine], the pIC50 is < 4.52 in series [1], 6.74 in series [2] (setting [5]) and 5.85 in series [3].

Take `COc1cncc(N2CCCNCCC2)c1` [Compound 6B, 1-(5-Methoxy-3-pyridyl)-1,5-diazacyclooctane]: the figures for the pIC50 in series [1], in series [2] and in series [3] were 5.60, 9.00 and 8.49, respectively.

`COc1cncc(N2CCN(C)CC2)c1` [Compound 3A, 4-Methyl-1-(5-methoxy-3-pyridyl)-piperazine] had a melting point of 67.5 to 68 °C. Also, the pIC50 in series [1] was 4.49. In addition, the pIC50 in series [2] was 7.17. In addition, the pIC50 in series [3] (setting [6]) was 6.42.

On to `CCCCOc1cncc(N2CCCN(C)CC2)c1` [Compound 6E, 1-(5-Butoxy-3-pyridyl)-4-methyl-homopiperazine], for which the pIC50 in series [1] was < 4.52; in series [2], 7.35; in series [3] (setting [6]), 6.62.

In the case of `CCCCCOc1cncc(N2CCCN(C)CC2)c1` [Compound 15E, 4-Methyl-1-(5-pentyloxy-3-pyridyl)-homopiperazine], the pIC50 in series [1] was < 4.52; in series [2], 7.52; in series [3] (setting [6]), 6.68.

As to `Brc1ccc(N2CCCNCC2)cn1` [Compound 8K, 1-(6-Bromo-3-pyridyl)-homopiperazine], the pIC50 in series [1] was 6.21; in series [2] (setting [5]) it was 9.00; in series [3], 8.00.

As to `COCCOc1cncc(N2CCCN(C)CC2)c1` [Compound 7E, 1-(5-Methoxyethoxy-3-pyridyl)-4-methyl-homopiperazine], the results for the pIC50 in series [1], in series [2] and in series [3] (setting [6]) were < 4.52, 7.15 and 6.26, respectively.

`COc1cc(N2CCCNCC2)cnc1Cl` [Compound 5F, 1-(6-Chloro-5-methoxy-3-pyridyl)-homopiperazine]: the pIC50 is 6.05 in series [1], 9.15 in series [2] and 8.30 in series [3].

With `CN1CCCN(c2cncc(OC3CCCC3)c2)CC1` [Compound 25E, 1-(5-Cyclopentyloxy-3-pyridyl)-4-methyl-homopiperazine], the pIC50 was < 4.52 in series [1], 7.10 in series [2] and 6.21 in series [3] (setting [6]).

As to `c1ccc2ncc(N3CCCNCC3)cc2c1` [Compound 2F, 1-(3-Quinolinyl)-homopiperazine], the pIC50 in series [1] is 5.23; in series [2] it was 8.22; in series [3] it was 7.08.

`Clc1ccc(C2CC3CCC2N3)cn1` (centres unmarked) [Epibatidine]: the “analgesic potency, times that of morphine” value in series [4] is ~500 times.

For `CC(C)COc1cncc(N2CCCNCC2)c1` [Compound 6H, 1-[5-(2-Methyl-propoxy)-3-pyridyl]-homopiperazine], the negative logarithm of the IC50 (pIC50) was < 4.52 in series [1], 8.70 in series [2] and 8.00 in series [3].

As to `c1ncc(N2CCCNCC2)cc1OCC1CC1` [Compound 9H, 1-(5-Cyclopropylmethoxy-3-pyridyl)-homopiperazine], the pIC50 in series [1] is < 4.52; in series [2], 9.00; in series [3] it was 8.22.

Regarding `CCOc1cncc(N2CCN(CC)CC2)c1` [Compound 9D, 1-(5-Ethoxy-3-pyridyl)-4-ethyl-piperazine], the pIC50 is < 4.52 in series [1], 7.15 in series [2] and 6.68 in series [3].

`c1cnnc(N2CCCNCC2)c1` [Compound 1L, 1-(3-Pyridazinyl)-homopiperazine]: the pIC50 is 5.80 in series [1], 7.52 in series [2] and 6.60 in series [3].

Source of the values: patent US6897219B2, “Heteroaryl diazacycloalkanes, their preparation and use” (priority 1997, dated 2005).
